According to patent US8329445B2, “Biosynthesis of phloroglucinol and preparation of 1,3-dihydroxybenzene therefrom” (Board of Trustees of Michigan State University, priority 2004, dated 2012):

Legend:
2-pyrone synthase = target: T1, 2-pyrone synthase (Gerbera hybrida, UniProt P48391); test: in vitro enzymology of purified 2-pyrone synthase; type: biochemical
T1 construct: made in house
T1 sequence (P48391 1-402): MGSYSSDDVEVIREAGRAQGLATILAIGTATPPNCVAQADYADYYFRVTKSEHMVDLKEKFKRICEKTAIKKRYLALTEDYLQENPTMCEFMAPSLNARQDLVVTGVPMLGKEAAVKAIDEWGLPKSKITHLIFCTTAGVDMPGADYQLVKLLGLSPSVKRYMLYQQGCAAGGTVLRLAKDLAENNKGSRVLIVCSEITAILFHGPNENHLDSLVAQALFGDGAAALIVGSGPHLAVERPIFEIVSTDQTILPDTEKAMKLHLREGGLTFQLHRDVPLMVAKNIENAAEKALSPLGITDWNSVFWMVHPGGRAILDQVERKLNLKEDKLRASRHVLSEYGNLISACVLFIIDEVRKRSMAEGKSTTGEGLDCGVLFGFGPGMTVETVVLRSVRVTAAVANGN
Source text: (§1) To further explore its role in phloroglucinol biosynthesis, PhlD is purified to homogeneity and its in vitro enzymology examined. No activity (Table 1) is observed when acetyl-CoA alone is employed as a substrate. […] For comparison, 2-pyrone synthase, which like PhlD employs an activated 3,5-diketohexanoate 2 (Scheme 1), is purified to homogeneity.

PhlD = target: T2, PhlD (Pseudomonas fluorescens, UniProt Q4K418); test: in vitro enzymology of purified PhlD; type: biochemical, P. fluorescens Pf-5
T2 construct: made in house
T2 sequence (Q4K418 1-349): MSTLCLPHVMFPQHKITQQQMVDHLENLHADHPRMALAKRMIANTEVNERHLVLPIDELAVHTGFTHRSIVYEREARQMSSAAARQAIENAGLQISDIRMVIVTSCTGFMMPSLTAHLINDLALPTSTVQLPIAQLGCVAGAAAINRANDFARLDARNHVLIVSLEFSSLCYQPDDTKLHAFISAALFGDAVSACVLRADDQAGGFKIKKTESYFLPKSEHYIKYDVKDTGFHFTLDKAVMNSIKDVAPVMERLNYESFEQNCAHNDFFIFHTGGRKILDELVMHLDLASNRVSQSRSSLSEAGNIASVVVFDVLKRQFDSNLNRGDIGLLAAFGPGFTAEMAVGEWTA
Source text: as §1

E. coli strains = test: end-product inhibition in fed-batch fermentation of phlD-expressing E. coli strains; type: cell-based; conditions: culture medium concentration; data not shown
Protocol: Plasmid pJA3.131A (Kan^R, lacI^Q, PT7-phlD, serA) is transfected into chromosomally serA^− E. coli strains BL21(DE3), W3110(DE3), and JWF1(DE3) [i.e. RB791serA^−(DE3)], and into strain KL3(DE3) [i.e. AB2834(serA::aroB)] (E. coli strains RB791 and AB2834 are available from the E. coli Genetic Stock Center, New Haven, Conn., USA). All DE3 strains are obtained by integration of λDE3 prophage into the cell chromosomes. Cells are cultured in fed-batch conditions under mineral salts and limited glucose.
In these tests, phloroglucinol accumulation for all strains stops increasing during the stationary (or maintenance) phase. For BL21 and W3110, the highest phloroglucinol concentration is achieved about 6 hours and about 12 hours, respectively, after initiation of induction, i.e. the first IPTG addition. End-product inhibition is also observed.

[1] = substrate: CC(C)(COP(=O)(O)OP(=O)(O)OC[C@H]1O[C@@H](n2cnc3c(N)ncnc32)[C@H](O)[C@@H]1OP(=O)(O)O)[C@@H](O)C(=O)NCCC(=O)NCCSC(=O)CC(=O)O; test: in vitro enzymology of purified PhlD; type: biochemical, P. fluorescens Pf-5; conditions: other: substrate of PhlD purified to homogeneity
Source text: as §1

[2] = substrate: CC(=O)SCCNC(=O)CCNC(=O)[C@H](O)C(C)(C)COP(=O)(O)OP(=O)(O)OC[C@H]1O[C@@H](n2cnc3c(N)ncnc32)[C@H](O)[C@@H]1OP(=O)(O)O; test: in vitro enzymology of purified 2-pyrone synthase; type: biochemical, Gerbera hybrida; conditions: other: substrate of 2-pyrone synthase purified to homogeneity
Source text: as §1

CC(=O)SCCNC(=O)CCNC(=O)[C@H](O)C(C)(C)COP(=O)(O)OP(=O)(O)OC[C@H]1O[C@@H](n2cnc3c(N)ncnc32)[C@H](O)[C@@H]1OP(=O)(O)O [acetyl-CoA]
specific activity with malonyl-CoA and acetyl-CoA relative to malonyl-CoA in the absence of acetyl-CoA (2-pyrone synthase; 2-pyrone synthase incubated with malonyl-CoA and acetyl-CoA): twofold higher
activity as substrate (2-pyrone synthase; acetyl-CoA as a substrate of 2-pyrone synthase): unable to use acetyl-CoA as a substrate
specific activity with malonyl-CoA and acetyl-CoA relative to only malonyl-CoA (PhlD; PhlD incubated with malonyl-CoA and acetyl-CoA): Approximately equal
activity as substrate (PhlD; employed alone as a substrate of PhlD): No activity

Oc1cc(O)cc(O)c1 [phloroglucinol, 1,3,5-trihydroxybenzene]
concentration at which phloroglucinol is responsible for end-product inhibition (E. coli strains): ≥ 2 g/L

2-pyrone synthase: 2-pyrone synthase from Gerbera hybrida, converts malonyl-CoA into triacetic acid lactone; comparison enzyme
kcat (2-pyrone synthase; 2-pyrone synthase purified to homogeneity): 0.055 s⁻¹

B1: PhlD (Pseudomonas protegens Pf-5) (protein)
chain: MSTLCLPHVMFPQHKITQQQMVDHLENLHADHPRMALAKRMIANTEVNERHLVLPIDELAVHTGFTHRSIVYEREARQMSSAAARQAIENAGLQISDIRMVIVTSCTGFMMPSLTAHLINDLALPTSTVQLPIAQLGCVAGAAAINRANDFARLDARNHVLIVSLEFSSLCYQPDDTKLHAFISAALFGDAVSACVLRADDQAGGFKIKKTESYFLPKSEHYIKYDVKDTGFHFTLDKAVMNSIKDVAPVMERLNYESFEQNCAHNDFFIFHTGGRKILDELVMHLDLASNRVSQSRSSLSEAGNIASVVVFDVLKRQFDSNLNRGDIGLLAAFGPGFTAEMAVGEWTA
notes: made in house
Km [1]: 37 µM

B2: 2-pyrone synthase (Gerbera hybrid cultivar) (protein)
chain: MGSYSSDDVEVIREAGRAQGLATILAIGTATPPNCVAQADYADYYFRVTKSEHMVDLKEKFKRICEKTAIKKRYLALTEDYLQENPTMCEFMAPSLNARQDLVVTGVPMLGKEAAVKAIDEWGLPKSKITHLIFCTTAGVDMPGADYQLVKLLGLSPSVKRYMLYQQGCAAGGTVLRLAKDLAENNKGSRVLIVCSEITAILFHGPNENHLDSLVAQALFGDGAAALIVGSGPHLAVERPIFEIVSTDQTILPDTEKAMKLHLREGGLTFQLHRDVPLMVAKNIENAAEKALSPLGITDWNSVFWMVHPGGRAILDQVERKLNLKEDKLRASRHVLSEYGNLISACVLFIIDEVRKRSMAEGKSTTGEGLDCGVLFGFGPGMTVETVVLRSVRVTAAVANGN
notes: made in house
Km [2]: 2.2 µM

B3: PhlD: phloroglucinol synthase expressed from phlD gene of P. fluorescens Pf-5, SEQ ID NO:2 (protein)
chain: MSTLCLPHVMFPQHKITQQQMVDHLENLHADHPRMALAKRMIANTEVNERHLVLPIDELAVHTGFTHRSIVYEREARQMSSAAARQAIENAGLQISDIRMVIVTSCTGFMMPSLTAHLINDLALPTSTVQLPIAQLGCVAGAAAINRANDFARLDARNHVLIVSLEFSSLCYQPDDTKLHAFISAALFGDAVSACVLRADDQAGGFKIKKTESYFLPKSEHYIKYDVKDTGFHFTLDKAVMNSIKDVAPVMERLNYESFEQNCAHNDFFIFHTGGRKILDELVMHLDLASNRVSQSRSSLSEAGNIASVVVFDVLKRQFDSNLNRGDIGLLAAFGPGFTAEMAVGEWTA
modifications: Pseudomonas fluorescens Pf-5
kcat (PhlD; PhlD purified to homogeneity, malonyl-CoA substrate): 0.0783 s⁻¹
